According to PubChem BioAssay (NCI):
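96-well plates; 48 h exposure; 5 concentrations. Endpoints by linear interpolation between flanking doses. Not reached: highest tested concentration assigned. GI50: concentration for 50% inhibition of growth. TGI: total growth inhibition.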

Key:
Experiment in all cases: inhibition of tumour cell growth, NCI panel, 48 h
SK-MEL-28 melanoma = tested on: SK-MEL-28 melanoma
NCI-H23 lung = tested on: NCI-H23 lung
SK-MEL-2 melanoma = tested on: SK-MEL-2 melanoma
MDA-MB-231 breast = tested on: MDA-MB-231 breast
UACC-257 melanoma = tested on: UACC-257 melanoma
KM12 colon = tested on: KM12 colon
CCRF-CEM leukemia = tested on: CCRF-CEM leukemia
U251 CNS = tested on: U251 CNS
IGROV1 ovarian = tested on: IGROV1 ovarian
SK-MEL-5 melanoma = tested on: SK-MEL-5 melanoma

Compound	GI50 (SK-MEL-28 melanoma)	TGI (SK-MEL-28 melanoma)	GI50 (NCI-H23 lung)	GI50 (SK-MEL-2 melanoma)	GI50 (MDA-MB-231 breast)	TGI (MDA-MB-231 breast)	GI50 (UACC-257 melanoma)	TGI (UACC-257 melanoma)	GI50 (KM12 colon)	TGI (KM12 colon)	GI50 (CCRF-CEM leukemia)	GI50 (U251 CNS)	TGI (U251 CNS)	GI50 (IGROV1 ovarian)	TGI (IGROV1 ovarian)	GI50 (SK-MEL-5 melanoma)	TGI (SK-MEL-5 melanoma)	TGI (NCI-H23 lung)	TGI (SK-MEL-2 melanoma)	TGI (CCRF-CEM leukemia)
Cc1ccc(N=Nc2c(N)nn(-c3ccccc3)c2N)cc1	8.97 µM	> 100 µM	2.29 µM	0.464 µM	7.41 µM	> 100 µM	42.9 µM	> 100 µM	0.626 µM	> 100 µM	2.06 µM	0.762 µM	> 100 µM	4.5 µM	> 100 µM	1.65 µM	> 100 µM	–	–	–
c1ccc(-c2nnc(Nc3ccc4c(c3)OCCO4)o2)c(NCc2ccncc2)c1	0.0411 µM	39 µM	0.033 µM	0.16 µM	0.0769 µM	> 100 µM	3.97 µM	> 62.4 µM	0.0327 µM	0.435 µM	0.033 µM	0.0369 µM	> 35.5 µM	0.0624 µM	19.1 µM	0.0257 µM	0.153 µM	6.81 µM	22.3 µM	> 100 µM
Cc1ncc(C(=O)Nc2ccc(CN3CCN(C)CC3)c(C(F)(F)F)c2)cc1C#Cc1cnc(N)c2ncccc12	0.056 µM	1.49 µM	0.841 µM	0.0783 µM	0.0801 µM	1.18 µM	0.128 µM	2.55 µM	–	1.33 µM	0.558 µM	1.07 µM	2.65 µM	–	–	1.02 µM	4.44 µM	3.3 µM	0.747 µM	> 20.6 µM
O=C(O)CCCSc1nc2ccccc2s1	–	> 100 µM	–	–	–	> 100 µM	–	> 100 µM	–	> 100 µM	–	–	> 100 µM	–	> 100 µM	–	> 100 µM	> 100 µM	> 100 µM	> 100 µM
O=C1OC(C2=CC(=O)c3ccccc3C2=O)C(Cl)=C1Cl (stereo not drawn)	–	96.2 µM	–	–	–	36 µM	–	> 100 µM	–	> 100 µM	–	–	86 µM	–	–	–	> 100 µM	59.4 µM	35.4 µM	50.9 µM
CNNC(=N\S(=O)(=O)c1cc(C(=O)Nc2ccc(Cl)cc2)c(Cl)cc1SCc1ccccc1)/N=C/c1ccc([N+](=O)[O-])s1	> 100 µM	> 100 µM	> 100 µM	> 100 µM	6.2 µM	> 100 µM	> 100 µM	> 100 µM	> 100 µM	> 100 µM	> 85.1 µM	> 100 µM	> 100 µM	> 70.1 µM	> 100 µM	6.57 µM	> 45.9 µM	> 100 µM	> 100 µM	> 100 µM
COc1cccc(-n2ncc3c(N/N=C/c4ccc(S(C)(=O)=O)cc4)ncnc32)c1	9.26 µM	> 25 µM	11.9 µM	9.94 µM	9.09 µM	> 24.1 µM	> 18 µM	> 25 µM	6.29 µM	> 25 µM	> 25 µM	4.99 µM	17.6 µM	11 µM	> 25 µM	3.45 µM	> 15.8 µM	> 25 µM	> 25 µM	> 25 µM
